From publication PMC9230797, “Integration of a Physiologically Based Pharmacokinetic and Pharmacodynamic Model for Tegoprazan and Its Metabolite: Application for Predicting Food Effect and Intragastric pH Alterations” (Pharmaceutics, 2022)
Values joined by “and” are separate entries in the source; they are usually repeats but may differ in a detail not shown here. Identical values can stand only once.

Columns and labels:
[1] = ADAM model prediction of regional absorption, gut metabolism, surface solubility and residence time; parameters: species or system human; conditions: at 30 min after a high-fat meal
Protocol: The absorption of tegoprazan was applied to the advanced dissolution, absorption, and metabolism (ADAM) model, and the diffusion layer model (DLM) built into SimCYP® was applied to the considered formulation and pH-dependent solubility of tegoprazan. The permeability of tegoprazan was determined by a Caco-2 permeability assay and optimized by parameter estimation. Caco-2 permeability was optimized such that the predicted concentration–time profiles were fitted to clinical study data. The metabolite was generated by the metabolism of the parent drug; therefore, absorption was not considered.
Postprandial PK profiles were predicted using an established model. Concentration–time profiles were obtained following a single oral dose (50 mg) of tegoprazan in the fasting state or 30 min after a high-fat diet. The predicted AUClast, Cmax, and Tmax values were compared with those of a previous clinical study.

[2] = system: CYP3A4; parameters: method as in ref 17, 18 = [17]; 17. Tegoprazan (K-CAB) Available online: https://pdfslide.net/reader/f/tegoprazan-k-cab-2019-02-08-tegoprazan-metabolic-pathway-75-by-cyp3a4 (accessed on 10 December 2020) || [18]; PMID 34575565; doi:10.3390/pharmaceutics13091489; 18. Yoon D.Y. Lee S. Jang I.-J. Kim M. Lee H. Kim S. Kim B. Song G.S. Rhee S.-J. Prediction of Drug–Drug Interaction Potential of Tegoprazan Using Physiologically Based Pharmacokinetic Modeling and Si; conditions: cited from earlier work
[3] = parameters: method as in PMID 33131095; conditions: 100 mg repeatedly; 10 healthy Chinese subjects; cited from earlier work
[4] = target: T1, CYP3A4 (Homo sapiens, UniProt P08684); assay: Intrinsic clearance using recombinant CYPs: CYP3A4; type: in vitro ADME
T1 construct: purchased Corning Life Sciences (Woburn, MA, USA)
T1 sequence (P08684 whole entry): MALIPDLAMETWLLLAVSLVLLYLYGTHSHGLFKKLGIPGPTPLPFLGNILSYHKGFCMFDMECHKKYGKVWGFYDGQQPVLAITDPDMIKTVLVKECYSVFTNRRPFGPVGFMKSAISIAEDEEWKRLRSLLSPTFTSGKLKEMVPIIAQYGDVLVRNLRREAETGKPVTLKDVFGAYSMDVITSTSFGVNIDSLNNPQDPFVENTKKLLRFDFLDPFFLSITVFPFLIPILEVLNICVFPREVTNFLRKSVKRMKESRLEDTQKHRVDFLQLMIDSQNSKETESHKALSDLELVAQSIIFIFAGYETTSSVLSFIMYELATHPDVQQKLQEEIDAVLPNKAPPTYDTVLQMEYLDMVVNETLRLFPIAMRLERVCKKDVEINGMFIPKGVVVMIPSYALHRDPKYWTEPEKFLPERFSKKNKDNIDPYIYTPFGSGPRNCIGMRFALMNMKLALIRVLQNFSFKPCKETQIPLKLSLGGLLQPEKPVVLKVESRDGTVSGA
Protocol: (§1) The elimination profiles of tegoprazan and M1 were assessed using rCYPs. All the assay procedures were performed according to the manufacturer’s instructions. Master mix (1.399 mL), containing the NADPH-generating system, 3.3 mM of glucose 6-phosphate, PBS buffer, deionized water, and each rCYP (25 pmol/μL of CYP2C8, 2C19, and 2E1 and 50 pmol/μL of CYP3A4, 2C9, and 2D6), was added to a microtube and pre-incubated at 37 °C for 5 min. Next, 1 μM tegoprazan and M1 were added and incubated at 37 °C for 0, 5, 10, 20, 30, 45, and 60 min. A total of 100 μL of the sample, incubated for predefined duration, was transferred to a fresh e-tube. Next, 200 μL of acetonitrile containing tegoprazan-d6 (0.5 μM) was added, vortexed for 5 min, and centrifuged at 16,200× g and 4 °C for 10 min. The concentrations of the remaining tegoprazan and M1 were determined by LC–MS/MS. All experiments were performed in duplicate. CLint,rCYP levels were assessed using the results of the disappearance test. […] The CLint resulting from rCYPs was calculated using Equation (3):(3) CLint,rCYP(μL/min/pmol CYP)=0.693/t1/2×1400/concentration of CYP
(§2) Caco-2 and rCYP samples were quantified using LC-MS/MS (UPLC® I-class coupled with TQ-MS (Waters, Milford, MA, USA). The mobile phase comprised (a) 0.1% formic acid and (b) acetonitrile containing 0.1% formic acid. Gradient elution at a flow rate of 0.3 mL/min was applied. Tegoprazan, M1, and the internal standard (tegoprazan-d6) were optimized in electrospray ionization positive mode. Acetonitrile with 0.1 μM of tegoprazan-d6 was added to the collected Caco-2 or rCYP samples. Then, processed samples were centrifuged at 13,000× g for 20 min. After centrifugation, 100 μL of supernatant was transferred to an LC-MS vial and analyzed using LC-MS/MS. […] The stability of tegoprazan was evaluated, and it satisfied the acceptance criteria (coefficient of variances was within 15%) under variable conditions including reinjection, processed sample stability (PSS), and short-term stability for the stock and sample.

[5] = Physicochemical properties (solubility, pKa, LogP, BCS class); conditions: from high permeability and low solubility
[6] = weak base; cited from earlier work
[7] = target: T2, CYP2E1 (Homo sapiens, UniProt P05181); assay: Intrinsic clearance using recombinant CYPs: CYP2E1; type: in vitro ADME
T2 construct: purchased Corning Life Sciences (Woburn, MA, USA)
T2 sequence (P05181 whole entry): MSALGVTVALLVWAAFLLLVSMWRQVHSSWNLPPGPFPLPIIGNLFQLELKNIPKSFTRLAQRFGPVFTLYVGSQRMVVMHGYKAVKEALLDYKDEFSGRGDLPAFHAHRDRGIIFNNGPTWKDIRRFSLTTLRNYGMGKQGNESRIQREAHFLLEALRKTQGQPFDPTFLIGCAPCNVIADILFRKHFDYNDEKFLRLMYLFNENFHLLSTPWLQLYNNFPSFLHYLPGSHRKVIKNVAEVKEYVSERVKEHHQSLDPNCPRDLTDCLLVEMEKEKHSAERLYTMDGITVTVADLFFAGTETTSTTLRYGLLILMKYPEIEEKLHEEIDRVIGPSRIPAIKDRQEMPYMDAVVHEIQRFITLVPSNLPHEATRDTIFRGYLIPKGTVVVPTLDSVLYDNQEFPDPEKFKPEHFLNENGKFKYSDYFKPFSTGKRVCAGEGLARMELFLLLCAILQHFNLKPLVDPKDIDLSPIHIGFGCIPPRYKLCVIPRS
Protocol: as §1, §2

increase of predicted absorbed fraction in the duodenum, fed vs fasting [1]: approximately 72.7%
increase of predicted mean residence time in the stomach, fed vs fasting [1]: approximately 170.4%
increase of predicted surface solubility in the duodenum, fed vs fasted [1]: 40.3%
increase of predicted surface solubility in the stomach, fed vs fasted [1]: 14.8%
CLint, CYP3A4 ([4]; 1 μM, experimental (initial model value)): 0.86 µL/min/pmol and 0.855 µL/min/pmol
half-life at 1 μM ([4]; human, recombinant CYP3A4, rCYP3A4): 0.378 h
Slope (disappearance) ([4]; rCYP3A4, 1 μM): -0.031
biopharmaceutics classification system (BCS) class [5]: class II
CLint, CYP2E1 ([7]; 1 μM, experimental data): 0.03 µL/min/pmol and 0.030 µL/min/pmol
half-life at 1 μM ([7]; human, recombinant CYP2E1, rCYP2E1): 11.6 h
Slope (disappearance) ([7]; rCYP2E1, 1 μM): -0.001
Structure (SMILES): Cc1nc2cc(C(=O)N(C)C)cc(O[C@H]3CCOc4cc(F)cc(F)c43)c2[nH]1 [tegoprazan]
metabolic fraction by CYP3A4 of total hepatic clearance [2]: approximately 75%
AUC and CL on Day 7 compared with Day 1 [3]: did not show a significant difference
Vd/F on Day 7 compared with Day 1 [3]: increased significantly
pKa [6]: 5.1
